# Measurements taken from patent publication US20260191887A1, “METHODS OF TREATING INFLAMMATION” (THERAPEUTIKOS, INC., priority 2022, published 2026).
# Key:
# [1] = test system: IL1β; experiment: RT-PCR of IL1β mRNA in LPS-activated RAW264.7 macrophages; assay type: cell-based, mouse; conditions: LPS 100 ng/mL; NDX1 0.1 mM and 0.5 mM, NAG 0.5 mM, NDX2 0.5 mM; n=4
# Procedure: (§1) Mouse RAW264.7 macrophage cell line (ATCC; Manassas, VA, USA) was maintained in DMEM culture medium containing 10% FBS and 1% antibiotic mix. For cell treatment, the test drugs at different doses were added to the culture 0.5 h prior to addition of 100 ng/mL LPS (Sigma-Aldrich Co., St Louis, MO, USA) and then cells were co-treated with LPS for 24 hours.
# Total RNA was purified using an RNeasy kit (QIAGEN Sciences, Valencia, CA) according to the protocol provided by the manufacturer, and was stored at −80° C. Synthesis of cDNA from total RNA and the quantitative PCR were carried out by using the iScript™ cDNA synthesis kit and the iQ™ SYBR Green Supermix kit (Bio-Rad Laboratories, Hercules, CA), respectively. The target genes included iNOS, IL-6 and IL-1β. Gene of 18s ribosomal RNA was used as an internal control. The threshold cycle (CT) value was calculated from amplification plots. Data was analyzed using the 2-ΔΔCT method with 18s rRNA serving as the reference. Gene expression was normalized to the control group in each experiment and represented as fold of change. […]
# [2] = test system: Cox-2; experiment: Western blot of Cox-2 expression in LPS-activated RAW264.7 macrophages; assay type: cell-based, mouse; conditions: LPS 100 ng/mL; NDX1 0.1 and 1 mM, NDX2 and NAG 0.5 and 5 mM
# Procedure: as §1
# (§2) The cellular proteins were prepared from cells growing on a 6-well plate (approximately 500,000/well) using a commercial cell lysis buffer (Thermo Scientific). Then the protein concentration was determined using the Bradford protein assay kit (Bio-Rad, Hercules, CA, USA). The samples containing 100 μg proteins were run on 10% SDS-polyacrylamide gels at a […] and electro-transferred to nitrocellulose membranes (Thermo Scientific) at a constant voltage of 10 V overnight. […] Using the magic wand tool from the tool palette, the area of each band was selected, and the mean histogram were recorded and then charted. […]
# [3] = test system: mouse iNOS; experiment: Western blot of iNOS expression in LPS-activated RAW264.7 macrophages; assay type: cell-based; conditions: LPS 100 ng/mL; NDX1 0.1 and 1 mM, NDX2 and NAG 0.5 and 5 mM
# Procedure: as §1, §2
# [4] = test system: TNFa; experiment: Serum TNFa ELISA in LPS-induced systemic inflammation in mice; assay type: in vivo, mouse; conditions: LPS 10 mg/kg I.P., compound 300 mg/kg I.V.
# Procedure: (§3) Male C57BL6/J mice (8 to 10-week-old, 20-25 g) purchased from Charles River were used in this study. Mice were kept in the animal facility of the School of Medicine, University of Virginia (UVa). All experimental procedures were approved by the Ethics Committee on Animal Research of Medical School, UVa and are in accordance with the Guidelines of the National Council for Animal Experimentation Control (CONCEA).
# (§4) Moderate endotoxemia by LPS was induced with a single dose (10 mg/Kg, i.p.) of LPS (Escherichia coli 0111:B4, Sigma Chemical Co., St. Louis, MO, United States), 30 min after intravenous injection of NAG or NDX1 or NDX2 or the vehicle (saline). Two doses (200 mg/kg body weight and 300 mg/kg body weight) were tested for NAG, NDX1 and NDX2. Animals without any treatment were used to obtain the baseline data. Six hours after LPS treatment, inflammation assays were performed as described below. A total of 40 animals were randomly divided into 5 groups (8 mice/group): non-treatment (NT); 10 mg/Kg LPS plus saline (LPS); 10 mg/Kg LPS plus NAG (LPS+NAG); 10 mg/Kg LPS plus NDX1 (LPS+NDX1); and 10 mg/Kg LPS plus NDX2 (LPS+NDX2). The experiment was duplicated.
# TNFa and IL-6 concentrations in the serum were determined using enzyme-linked immunosorbent assay (ELISA) according to the manufacturer's instructions. […] The resultant solutions were read at 450 nm on a microplate reader.
# [5] = test system: leukocytes migration to the peritoneal cavity; experiment: Leukocyte migration to the peritoneal cavity in LPS-induced systemic inflammation in mice; assay type: in vivo, mouse; conditions: LPS 10 mg/kg I.P., compound 200 or 300 mg/kg I.V., vs LPS alone
# Procedure: as §3, §4
# Peritoneal cells were collected by lavage with ice-cold Dulbecco's modified Eagle's medium (DMEM, Gibco BRL, Gaithersburg, MD). […]
smiles,measurement,setting,value
"CC(=O)N[C@H]1C(O)O[C@H](CO)[C@@H](O)[C@@H]1O (some centres unmarked) [NAG, N-acetyl glucosamine]",inhibition of IL1β mRNA expression (RT-PCR),[1],could inhibit IL1β
same,rank order for inhibition of Cox-2 expression (western blot),[2],NAG>NDX2>NDX1
same,rank order for inhibition of iNOS expression (western blot),[3],NDX1>NDX2>NAG
same,decrease of serum level of TNFa,[4],significantly decrease serum levels
same,decrease of leukocytes migration to the peritoneal cavity (WST-1 test or DAPI staining),[5],neither NAG nor NDX2 did
